From PMC12775434, “Ultra-large virtual screening unveils potent agonists of the neuromodulatory orphan receptor GPR139” (Nature Communications, 2025)
Values joined by “and” are separate entries in the source; they are usually repeats but may differ in a detail not shown here. Identical values can stand only once.

Experiments:
Assay type in all cases: cell-based
[1] = target: T1, GPR139 (Homo sapiens, UniProt Q6DWJ6); test: Ca2+ mobilization assay, agonist mode, stable GPR139-CHOk1 cell line; conditions: for EC50 / Emax: Supplementary Table 2, mean ± SEM; for EC50: read-out: pEC50 Ca2+ (converted); for Emax: normalized to Lundbeck Cmp 1a, read-out: Emax (%) Ca2+
T1 sequence (Q6DWJ6 1-353): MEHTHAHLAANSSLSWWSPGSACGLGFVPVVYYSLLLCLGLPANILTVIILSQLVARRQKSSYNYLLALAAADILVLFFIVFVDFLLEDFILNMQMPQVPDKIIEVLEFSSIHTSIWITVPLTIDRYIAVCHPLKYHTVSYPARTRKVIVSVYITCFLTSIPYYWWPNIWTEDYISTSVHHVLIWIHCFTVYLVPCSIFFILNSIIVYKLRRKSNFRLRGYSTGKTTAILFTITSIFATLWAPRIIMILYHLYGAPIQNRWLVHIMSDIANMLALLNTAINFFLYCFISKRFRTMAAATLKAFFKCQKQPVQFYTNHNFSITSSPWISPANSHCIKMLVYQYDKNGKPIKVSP
In short: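 Agonist activity of compounds is assessed in stably transfected CHO-K1 cells using the calcium dye Fluo-4 at 37 °C in HEPES-buffered HBSS (pH 7.4). Efficacy is expressed relative to the reference agonist Lundbeck Cmp 1a, set as 100%.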

[2] = target: T2, human muscarinic acetylcholine M1 receptor (M1R) (Homo sapiens, UniProt P11229); test: Ca2+ mobilization counter-screen in M1R-CHOk1 cells; conditions: individual replicates (Supplementary Figure 5)
T2 sequence (P11229 1-460): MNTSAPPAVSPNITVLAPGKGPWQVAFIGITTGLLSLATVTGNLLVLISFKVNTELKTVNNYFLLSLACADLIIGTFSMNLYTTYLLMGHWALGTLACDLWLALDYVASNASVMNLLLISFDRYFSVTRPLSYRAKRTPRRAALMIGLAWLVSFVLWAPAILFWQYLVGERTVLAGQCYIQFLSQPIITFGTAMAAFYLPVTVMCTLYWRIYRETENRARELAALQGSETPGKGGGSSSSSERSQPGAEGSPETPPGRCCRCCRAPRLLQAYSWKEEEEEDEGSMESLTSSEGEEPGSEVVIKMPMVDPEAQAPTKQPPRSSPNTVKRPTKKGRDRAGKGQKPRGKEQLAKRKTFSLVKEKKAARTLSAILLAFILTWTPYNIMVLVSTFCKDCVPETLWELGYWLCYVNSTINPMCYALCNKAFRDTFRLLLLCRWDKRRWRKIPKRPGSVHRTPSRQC
Protocol: Primary screening and pharmacological characterization of compounds were performed using a CHO-K1 cell line that stably expresses human GPR139 (GPR139-CHOk1). The GPR139-CHOk1 cell line was kindly provided by H. Lundbeck A/S, Denmark[24]. GPR139-CHOk1 cells were grown in Ham’s F-12 Kaighn’s Modification Medium (ThermoFisher #21127030) supplemented with 10% dialyzed fetal bovine serum (US origin, ThermoFisher #26400044), 100 units/mL Penicillin-Streptomycin (ThermoFisher #15140122), and 1 mg/mL Geneticin (ThermoFisher #11811031). […] M1R-CHOk1 cells were purchased from The Missouri S&T cDNA Resource Center (#CEM100TN00). M1R-CHOk1 cells were grown in Ham’s F12 Medium (ThermoFisher #21765029) supplemented with 10% fetal bovine serum (Brazilian origin, ThermoFisher #10270106), 100 units/mL Penicillin-Streptomycin, and 0.25 mg/mL Geneticin. HEK293A cells transiently transfected with GPR139 were used for additional pharmacological assessment of signaling pathways activated by GPR139. HEK239A cells were generously provided by Dr. Asuka Inoue, Tohoku University, Japan. HEK293A cells were grown in Dulbecco’s Modified Eagle Medium (ThermoFisher #31966047) supplemented with 10% dialyzed fetal bovine serum and 100 units/mL Penicillin-Streptomycin. Cell lines were maintained at 37 °C in humidified incubator equilibrated with 5% CO2.
30,000 GPR139- or M1R-CHOk1 cells/well were seeded in black clear bottom tissue culture treated 96-well plates (Greiner #655090) and grown for 20–24 h. Cells were washed with HEPES buffer (Hank’s Balanced Salt Solution (HBBS) supplemented with 20 mM HEPES, 1 mM MgCl2, and 1 mM CaCl2; pH 7.4). Cells were loaded with 50 µL of 2 µM Fluo-4 AM dye (ThermoFisher #F14202) in HEPES buffer supplemented with 2.5 mM probenecid and 0.01% Pluronic F-68 (ThermoFisher #24040032) for 1 h at 37 °C. Cells were washed with HEPES buffer. 50 µL HEPES buffer supplemented with 2.5 mM probenecid was added, and the cells were incubated for 10 min at 37 °C before measurement. 50 µL test compounds diluted in HEPES buffer from DMSO stocks (final DMSO concentration of maximally 0.3%) were added automatically after baseline measurements. The intracellular calcium mobilization was measured on a FlexStation 3 Multimode Microplate Reader (Molecular Devices) at 37 °C with filters for excitation of 485 nm and emission of 525 nm.

[3] = target: T1, GPR139; test: Ca2+ mobilization assay, antagonist mode (EC80 800 nM Lundbeck Cmp 1a after 20 min preincubation), GPR139-CHOk1; conditions: individual replicates (Supplementary Figure 4)
In short: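 Antagonist mode: 800 nM (EC80) reference agonist Lundbeck Cmp 1a added following 20 min pre-incubation with 10 µM compound. GPR139-CHOk1 cells, Fluo-4 dye, probenecid-containing HEPES buffer pH 7.4; intracellular Ca2+ measured at 37 °C (ex 485, em 525 nm).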

[4] = Agonist mode, individual replicates (Supplementary Figure 4)
[5] = log [Compound] M = -4.5, individual replicate columns
[6] = log [Compound] M = -5.0, individual replicate columns
[7] = log [Compound] M = -5.5, individual replicate columns
[8] = log [Compound] M = -6.0, individual replicate columns
[9] = log [Compound] M = -6.5, individual replicate columns
[10] = log [Compound] M = -7.0, individual replicate columns
[11] = log [Compound] M = -7.5, individual replicate columns
[12] = log [Compound] M = -8.0, individual replicate columns
[13] = log [Compound] M = -8.5, individual replicate columns
[14] = log [Compound] M = -9.0, individual replicate columns

| Compound | Ca2+ signal (% of Cmp 1a) [1, 4] | fold decrease in potency relative to a similar phenyl substituted compound (1.3) ([1]; Ca2+ mobilization EC50) | EC50 [1] [µM] | Emax [1] [%] | Ca2+ signal (% of Cmp 1a) [1, 5] | Ca2+ signal (% of Cmp 1a) [1, 6] | Ca2+ signal (% of Cmp 1a) [1, 7] | Ca2+ signal (% of Cmp 1a) [1, 8] | Ca2+ signal (% of Cmp 1a) [1, 9] | Ca2+ signal (% of Cmp 1a) [1, 10] | Ca2+ signal (% of Cmp 1a) [1, 11] | Ca2+ signal (% of Cmp 1a) [1, 12] | Ca2+ signal (% of Cmp 1a) [1, 13] | Ca2+ signal (% of Cmp 1a) [1, 14] | Ca2+ signal (% of Carbachol) [2] | Ca2+ signal (% of Cmp 1a) [3] | fold decrease in potency relative to parent compound 1 ([1]; Ca2+ mobilization EC50) |
| --- | --- | --- | --- | --- | --- | --- | --- | --- | --- | --- | --- | --- | --- | --- | --- | --- | --- |
| Cc1cc(-c2nc(CC(=O)NC(C)c3ccccc3)no2)ccn1 (centres unmarked) [Compound 1.19, CC(C1=CC=CC=C1)NC(CC2=NOC(C3=CC(C)=NC=C3)=N2)=O] | 76 % of Cmp 1a and 74 % of Cmp 1a and 71 % of Cmp 1a | 4- to 16 fold | 1 | 109 ± 10 | 117 % of Cmp 1a and 90 % of Cmp 1a and 116 % of Cmp 1a | 97 % of Cmp 1a and 89 % of Cmp 1a and 99 % of Cmp 1a | 77 % of Cmp 1a and 75 % of Cmp 1a and 88 % of Cmp 1a | 61 % of Cmp 1a and 62 % of Cmp 1a and 60 % of Cmp 1a | 30 % of Cmp 1a and 19 % of Cmp 1a and 26 % of Cmp 1a | 9 % of Cmp 1a and 6.33 % of Cmp 1a and 5.33 % of Cmp 1a | 4.67 % of Cmp 1a and 0.667 % of Cmp 1a and -2.67 % of Cmp 1a | 3 % of Cmp 1a and -3.33 % of Cmp 1a and -3.67 % of Cmp 1a | 13 % of Cmp 1a and -4.67 % of Cmp 1a and 2.33 % of Cmp 1a | 7 % of Cmp 1a and -8 % of Cmp 1a and -1.33 % of Cmp 1a | 8 % of Carbachol and -12 % of Carbachol and 7 % of Carbachol | 5.67 % of Cmp 1a and -2 % of Cmp 1a and -8 % of Cmp 1a |  |
| COc1csc(-c2nc(CC(=O)NC(C)c3ccccc3)no2)c1 (centres unmarked) [Compound 1.39, COC1=CSC(=C1)C2=NC(CC(=O)NC(C)C=3C=CC=CC3)=NO2] | 80 % of Cmp 1a and 95 % of Cmp 1a and 86 % of Cmp 1a |  | 0.316 | 123 ± 14 | 120 % of Cmp 1a and 97 % of Cmp 1a and 133 % of Cmp 1a | 130 % of Cmp 1a and 91 % of Cmp 1a and 148 % of Cmp 1a | 122 % of Cmp 1a and 94 % of Cmp 1a and 152 % of Cmp 1a | 98 % of Cmp 1a and 72 % of Cmp 1a and 114 % of Cmp 1a | 73 % of Cmp 1a and 44 % of Cmp 1a and 79 % of Cmp 1a | 38 % of Cmp 1a and 21 % of Cmp 1a and 34 % of Cmp 1a | 20 % of Cmp 1a and 15 % of Cmp 1a and 2 % of Cmp 1a | 16 % of Cmp 1a and 17 % of Cmp 1a and -3.33 % of Cmp 1a | 7 % of Cmp 1a and 12 % of Cmp 1a and -8 % of Cmp 1a | 15 % of Cmp 1a and 20 % of Cmp 1a and 0.667 % of Cmp 1a | -14 % of Carbachol and -1 % of Carbachol and -5.33 % of Carbachol | -8 % of Cmp 1a and 12 % of Cmp 1a and -11 % of Cmp 1a |  |
| Cc1ccc(-c2nc(CC(=O)NC(C)c3ccccc3)no2)cn1 (centres unmarked) [Compound 1.32, CC(C1=CC=CC=C1)NC(CC2=NOC(C3=CN=C(C)C=C3)=N2)=O] | 72 % of Cmp 1a and 83 % of Cmp 1a |  | 3.16 | 82 ± 9 | 119 % of Cmp 1a and 81 % of Cmp 1a and 67 % of Cmp 1a | 69 % of Cmp 1a (2×) and 43 % of Cmp 1a | 37 % of Cmp 1a and 66 % of Cmp 1a and 27 % of Cmp 1a | 13 % of Cmp 1a and 24 % of Cmp 1a and -2 % of Cmp 1a | -0.322 % of Cmp 1a and 4.26 % of Cmp 1a and 0.586 % of Cmp 1a | -6.64 % of Cmp 1a and 3.41 % of Cmp 1a and 1.32 % of Cmp 1a | -5 % of Cmp 1a and 2.31 % of Cmp 1a and 1.1 % of Cmp 1a | 10 % of Cmp 1a and 3 % of Cmp 1a and 2.26 % of Cmp 1a | 1.63 % of Cmp 1a and 4.29 % of Cmp 1a and 1.12 % of Cmp 1a | -8 % of Cmp 1a and 9 % of Cmp 1a and -2.5 % of Cmp 1a | -19 % of Carbachol and -6 % of Carbachol and 8 % of Carbachol | 66 % of Cmp 1a and 64 % of Cmp 1a and 48 % of Cmp 1a |  |
| Cc1ncc(-c2nc(CC(=O)NC(C)c3ccccc3)no2)s1 (centres unmarked) [Compound 1.34, CC(C1=CC=CC=C1)NC(CC2=NOC(C3=CN=C(S3)C)=N2)=O] | 81 % of Cmp 1a and 51 % of Cmp 1a |  | 3.98 | 90 ± 6 | 108 % of Cmp 1a and 98 % of Cmp 1a and 84 % of Cmp 1a and 88 % of Cmp 1a | 66 % of Cmp 1a and 94 % of Cmp 1a and 68 % of Cmp 1a and 51 % of Cmp 1a | 43 % of Cmp 1a and 86 % of Cmp 1a and 38 % of Cmp 1a and 21 % of Cmp 1a | 8.56 % of Cmp 1a and 40 % of Cmp 1a and 9.49 % of Cmp 1a and -0.9 % of Cmp 1a | -2.32 % of Cmp 1a and 12 % of Cmp 1a and 4.69 % of Cmp 1a and 1.79 % of Cmp 1a | 3 % of Cmp 1a (2×) and -4 % of Cmp 1a and 10 % of Cmp 1a | 8 % of Cmp 1a and -0.386 % of Cmp 1a and 18 % of Cmp 1a and 3.4 % of Cmp 1a | 15 % of Cmp 1a and -0.802 % of Cmp 1a and 16 % of Cmp 1a and 14 % of Cmp 1a | 6.66 % of Cmp 1a and 2 % of Cmp 1a and 14 % of Cmp 1a and 12 % of Cmp 1a | 1.77 % of Cmp 1a and 8 % of Cmp 1a and 11 % of Cmp 1a and 6 % of Cmp 1a | 0.0525 % of Carbachol and -0.37 % of Carbachol and -1 % of Carbachol | 33 % of Cmp 1a and 16 % of Cmp 1a and 43 % of Cmp 1a | 3- to 25 fold |
